# From ChEMBL document CHEMBL5678818, “Discovery of potent SOS1 inhibitors that block RAS activation via disruption of the RAS-SOS1 interaction” (Proc Natl Acad Sci U S A, 2019)
# Columns and labels:
# [1] = molecular target: T1, Membrane-associated tyrosine- and threonine-specific cdc2-inhibitory kinase (Homo sapiens) (UniProt Q99640); test: Inhibition of PKMYT1 (unknown origin) assessed as residual activity at 100 nM by KINOMEscan analysis relative to control
# T1 sequence (whole entry): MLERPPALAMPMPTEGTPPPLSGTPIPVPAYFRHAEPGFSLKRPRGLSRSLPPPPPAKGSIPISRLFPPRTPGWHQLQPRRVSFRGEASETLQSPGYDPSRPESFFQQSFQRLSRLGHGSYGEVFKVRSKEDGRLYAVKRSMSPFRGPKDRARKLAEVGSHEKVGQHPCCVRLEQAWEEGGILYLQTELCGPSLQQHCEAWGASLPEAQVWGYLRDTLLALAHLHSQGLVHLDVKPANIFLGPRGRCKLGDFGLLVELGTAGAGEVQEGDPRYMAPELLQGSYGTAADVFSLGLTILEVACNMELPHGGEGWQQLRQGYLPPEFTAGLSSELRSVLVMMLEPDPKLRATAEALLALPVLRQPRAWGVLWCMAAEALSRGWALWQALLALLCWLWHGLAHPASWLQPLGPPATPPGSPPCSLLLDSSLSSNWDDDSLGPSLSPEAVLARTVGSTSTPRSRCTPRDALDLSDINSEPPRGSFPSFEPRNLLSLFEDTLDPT
# [2] = molecular target: NT-3 growth factor receptor (Homo sapiens) (UniProt Q16288); test: Inhibition of TRKC (unknown origin) assessed as residual activity at 100 nM by KINOMEscan analysis relative to control
# [3] = molecular target: Tyrosine-protein kinase JAK1 (Homo sapiens) (UniProt P23458); test: Inhibition of JAK1 JH1 catalytic domain (unknown origin) assessed as residual activity at 100 nM by KINOMEscan analysis relative to control
# [4] = molecular target: Cyclin-dependent kinase 15 (Homo sapiens) (UniProt Q96Q40); test: Inhibition of PFTAIRE2 (unknown origin) assessed as residual activity at 100 nM by KINOMEscan analysis relative to control
# [5] = molecular target: Serine/threonine-protein kinase B-raf (Homo sapiens) (UniProt P15056); test: Inhibition of BRAF (unknown origin) assessed as residual activity at 100 nM by KINOMEscan analysis relative to control
# [6] = molecular target: T2, Muscle, skeletal receptor tyrosine-protein kinase (Homo sapiens) (UniProt O15146); test: Inhibition of MUSK (unknown origin) assessed as residual activity at 100 nM by KINOMEscan analysis relative to control
# T2 sequence (whole entry): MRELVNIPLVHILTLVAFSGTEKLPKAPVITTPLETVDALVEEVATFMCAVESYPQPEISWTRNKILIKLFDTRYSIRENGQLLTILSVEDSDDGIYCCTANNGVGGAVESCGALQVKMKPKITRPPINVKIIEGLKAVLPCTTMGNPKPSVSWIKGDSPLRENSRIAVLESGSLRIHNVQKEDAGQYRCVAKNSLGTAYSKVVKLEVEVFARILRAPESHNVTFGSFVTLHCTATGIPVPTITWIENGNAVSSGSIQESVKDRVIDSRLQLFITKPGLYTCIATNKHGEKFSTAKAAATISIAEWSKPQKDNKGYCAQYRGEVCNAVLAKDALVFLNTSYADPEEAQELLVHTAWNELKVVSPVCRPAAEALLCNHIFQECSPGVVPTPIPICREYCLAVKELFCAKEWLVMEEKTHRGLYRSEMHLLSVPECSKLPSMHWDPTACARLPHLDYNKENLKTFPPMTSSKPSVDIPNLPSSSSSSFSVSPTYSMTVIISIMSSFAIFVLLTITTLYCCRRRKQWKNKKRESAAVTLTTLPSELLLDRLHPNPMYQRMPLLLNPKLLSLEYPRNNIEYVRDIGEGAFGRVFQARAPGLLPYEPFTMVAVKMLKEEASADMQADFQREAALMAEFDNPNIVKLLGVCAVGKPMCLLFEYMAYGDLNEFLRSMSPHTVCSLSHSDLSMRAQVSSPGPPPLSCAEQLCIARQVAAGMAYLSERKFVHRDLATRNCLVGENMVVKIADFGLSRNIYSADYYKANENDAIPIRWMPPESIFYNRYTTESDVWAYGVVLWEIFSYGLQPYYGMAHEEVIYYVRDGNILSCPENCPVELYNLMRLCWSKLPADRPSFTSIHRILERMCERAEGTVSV
# [7] = molecular target: Epidermal growth factor receptor (Homo sapiens, UniProt P00533); test: Inhibition of EGFR (unknown origin) assessed as residual activity at 100 nM by KINOMEscan analysis relative to control
# GTPase KRas = GTPase KRas (Homo sapiens, UniProt P01116, G12C); test: Inhibition of N-terminal GST-tagged recombinant human KRAS G12C mutant (1 to 169 residues) expressed in Escherichia coli assessed as reduction in intrinsic GTP exchange preincubated for 10 mins with KRAS followed by SOS1 addition measured after 30 mins in presence of EDA-GTP-DY-647P1 by HTRF analysis
# [8] = molecular target: Activin receptor type-2B (Homo sapiens) (UniProt Q13705); test: Inhibition of ACVR2B (unknown origin) assessed as residual activity at 100 nM by KINOMEscan analysis relative to control
# [9] = molecular target: Mitogen-activated protein kinase 3 (Homo sapiens) (UniProt P27361); test: Inhibition of ERK1 (unknown origin) assessed as residual activity at 100 nM by KINOMEscan analysis relative to control
# [10] = molecular target: T3, Cyclin-dependent kinase-like 2 (Homo sapiens) (UniProt Q92772); test: Inhibition of CDKL2 (unknown origin) assessed as residual activity at 100 nM by KINOMEscan analysis relative to control
# T3 sequence (whole entry): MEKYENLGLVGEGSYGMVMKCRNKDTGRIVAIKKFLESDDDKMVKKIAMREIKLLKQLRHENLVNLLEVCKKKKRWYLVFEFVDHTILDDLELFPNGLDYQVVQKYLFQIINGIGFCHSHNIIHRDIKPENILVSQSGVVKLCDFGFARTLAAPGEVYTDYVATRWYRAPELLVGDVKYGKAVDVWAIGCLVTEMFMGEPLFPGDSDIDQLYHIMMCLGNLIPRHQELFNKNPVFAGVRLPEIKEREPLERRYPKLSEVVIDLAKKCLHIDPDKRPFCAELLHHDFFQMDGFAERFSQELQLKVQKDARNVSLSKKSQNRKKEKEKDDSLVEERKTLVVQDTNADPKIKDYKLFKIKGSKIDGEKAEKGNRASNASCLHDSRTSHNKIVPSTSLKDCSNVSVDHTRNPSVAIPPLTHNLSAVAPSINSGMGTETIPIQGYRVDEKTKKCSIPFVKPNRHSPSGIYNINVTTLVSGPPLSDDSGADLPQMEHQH
# [11] = molecular target: Casein kinase II subunit alpha (Homo sapiens) (UniProt P68400); test: Inhibition of CSNK2A1 (unknown origin) assessed as residual activity at 100 nM by KINOMEscan analysis relative to control
smiles,measurement,setting,value
COc1cc2ncnc(N[C@H](C)c3cccc4ccccc34)c2cc1OC,Activity,[1],100%
same,Activity,[2],89%
same,Activity,[3],79%
same,Activity,[4],100%
same,Activity,[5],88%
same,Activity,[6],98%
same,Activity,[7],93%
same,IC50,GTPase KRas,> 20 µM
same,Activity,[8],91%
same,Activity,[9],91%
same,Activity,[10],88%
same,Activity,[11],96%
